We go through nine compounds from PubChem BioAssay (NCI).

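Protocol summary: plate cells (96-well), add compound at 5 concentrations, incubate 48 h, interpolate endpoints linearly. The concentration for 50% growth inhibition is given as GI50. TGI denotes the concentration required for complete inhibition of growth.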 Where only a bound is given, the exact number is not on record here.

Among the test systems are RXF 393 renal; RPMI-8226 leukemia; MDA-MB-435; SK-OV-3 ovarian; IGROV1 ovarian; DU-145 prostate; SK-MEL-2 melanoma; HT29 colon; ACHN renal; NCI-H226 lung.
Common to all, as to assay: NCI anticancer screen, dose series, 48 h

On to `CC12CC(c3ccccc3O1)C(C(=O)Nc1nccs1)C(=O)N2` (stereo not given), for which the TGI in the assay with RXF 393 renal, in the assay on RPMI-8226 leukemia, in the assay on MDA-MB-435, in the assay with SK-OV-3 ovarian, with IGROV1 ovarian and in the assay on DU-145 prostate was over 100 µM each time. In addition, the TGI in the assay on SK-MEL-2 melanoma, in the assay on HT29 colon, in the assay on ACHN renal and with NCI-H226 lung was over 100 µM throughout.
For `O=C(NC1=C(Cl)C(=O)c2ccccc2C1=O)C(=O)c1c(O)c2ccccc2oc1=O`, the TGI turned out to be 21.9 µM with RXF 393 renal; 30.3 µM in the assay with RPMI-8226 leukemia; 2.97 µM in the assay on MDA-MB-435; 27.4 µM in the assay with SK-OV-3 ovarian; 16.1 µM in the assay with IGROV1 ovarian; 2.93 µM in the assay with DU-145 prostate. Besides, the TGI was found to be 10.3 µM in the assay on SK-MEL-2 melanoma, 12.8 µM in the assay on HT29 colon, 14 µM with ACHN renal and 28.9 µM in the assay with NCI-H226 lung.
For the compound `O=C(NCc1cn(Cc2cccc(Oc3ccccc3)c2)nn1)c1cccnc1NCc1ccc(Cl)cc1`, the GI50 is 2.19 µM in the assay on RXF 393 renal; 3.12 µM in the assay with RPMI-8226 leukemia; 2.33 µM in the assay on MDA-MB-435; 3.32 µM with SK-OV-3 ovarian; 9.03 µM in the assay with IGROV1 ovarian; 4 µM in the assay with DU-145 prostate. The GI50 with SK-MEL-2 melanoma is 4.44 µM; in the assay with HT29 colon it was 2.96 µM; in the assay with ACHN renal, 4.03 µM; in the assay on NCI-H226 lung, 4.23 µM. Moreover, the TGI is 7.81 µM in the assay on RXF 393 renal; over 100 µM in the assay with RPMI-8226 leukemia; 7.37 µM in the assay on MDA-MB-435; 69.2 µM in the assay with SK-OV-3 ovarian; over 100 µM with IGROV1 ovarian; over 100 µM in the assay with DU-145 prostate. Moreover, the TGI is over 100 µM in the assay with SK-MEL-2 melanoma, 7.56 µM with HT29 colon, over 100 µM in the assay on ACHN renal and over 100 µM in the assay on NCI-H226 lung.
On to `O=C(O)c1c(CC(Cc2ccccc2)C(=O)O)ccc2c1CCC2` (stereo not given), for which the TGI in the assay on RXF 393 renal, in the assay on RPMI-8226 leukemia, in the assay with MDA-MB-435, in the assay with SK-OV-3 ovarian, in the assay with IGROV1 ovarian and in the assay on DU-145 prostate was over 100 µM in each case. Also, the TGI in the assay on SK-MEL-2 melanoma, with HT29 colon, in the assay with ACHN renal and in the assay with NCI-H226 lung was over 100 µM each time.
For the compound `CN1CCC(O)(OC(=O)C(c2ccccc2)C2(O)CCCC2)CC1` (stereo not given), the TGI in the assay on RXF 393 renal, in the assay on RPMI-8226 leukemia, with MDA-MB-435, in the assay on SK-OV-3 ovarian, with IGROV1 ovarian and in the assay with DU-145 prostate was over 100 µM in each case. In addition, the TGI in the assay on SK-MEL-2 melanoma, in the assay with HT29 colon, with ACHN renal and with NCI-H226 lung was over 100 µM each time.
In the case of `CC(C)(C)c1cc(C(C)(C)C)c(SC2OC(CO)C(O)C(O)C2O)c(O)c1O` (stereo not given), the TGI amounted to 14.1 µM in the assay on RXF 393 renal; 76.1 µM with RPMI-8226 leukemia; 21 µM with MDA-MB-435; 32.9 µM in the assay with SK-OV-3 ovarian; 43.4 µM in the assay on IGROV1 ovarian; 31.8 µM in the assay on DU-145 prostate. The TGI worked out at 25 µM with SK-MEL-2 melanoma, 24.5 µM with HT29 colon, 22.8 µM in the assay on ACHN renal and 36.7 µM in the assay with NCI-H226 lung.
Regarding `Oc1ccc(Nc2nc(Cl)c3[nH]cnc3n2)cc1`, the TGI with RXF 393 renal, in the assay on RPMI-8226 leukemia, in the assay with MDA-MB-435, in the assay with SK-OV-3 ovarian, with IGROV1 ovarian and in the assay on DU-145 prostate was over 100 µM throughout. In addition, the TGI in the assay with SK-MEL-2 melanoma is 87.3 µM; with HT29 colon, over 100 µM; in the assay with ACHN renal, over 100 µM; in the assay on NCI-H226 lung, over 100 µM.
As for `C#CC(O)/C=C/C(O)CCCC(O)CC#CC(O)C#CCCCCC(O)/C=C/CCCC(=O)CCCCCCCCCCCCCCCC(O)C(O)C#CC(=O)O` (stereo not given), the TGI in the assay with RXF 393 renal, in the assay with RPMI-8226 leukemia, in the assay on MDA-MB-435, in the assay on SK-OV-3 ovarian, in the assay on IGROV1 ovarian and with DU-145 prostate was over 25 µM throughout. Also, the TGI with SK-MEL-2 melanoma, in the assay with HT29 colon, with ACHN renal and with NCI-H226 lung was over 25 µM throughout.
With `O=C(Oc1cncc(Cl)c1)c1cc2ccccc2sc1=O`, the TGI is 91.1 µM in the assay with RXF 393 renal; over 100 µM with RPMI-8226 leukemia; over 100 µM with MDA-MB-435; over 100 µM in the assay with SK-OV-3 ovarian; over 100 µM with IGROV1 ovarian; over 100 µM in the assay with DU-145 prostate. Further, the TGI with SK-MEL-2 melanoma was 90.7 µM; in the assay on HT29 colon, over 100 µM; with ACHN renal, over 100 µM; in the assay on NCI-H226 lung it was 57.1 µM.
